For experiment [1], the system named is T1, YfkO-cys.
T1 construct: pET28a+ His-tag plus tag of 6 N-terminal cysteines, tags kept; E. coli Rosetta pLysS; FMN-loaded; approx. 30 kDa monomer on SDS-PAGE; free enzyme
The experiment in a line: prodrug consumption at […] nm, microplate, Michaelis-Menten fit. It is filed as biochemical, Bacillus licheniformis. To be noted: NADH 4 mM, 50 mM phosphate pH 7.2, 37 °C, 5% v/v DMSO, prodrug 0.1-20 mM.

For experiment [2], the target named is T2, NfnB-cys (Escherichia coli, UniProt P38489).
T2 construct: gene nfsB; pET28a+ His-tag plus tag of 6 N-terminal cysteines, tags kept; E. coli Rosetta pLysS; FMN-loaded; approx. 28 kDa monomer on SDS-PAGE; free enzyme
The experiment is described as above. To be noted: read-out: Km μM, NADH 4 mM, 50 mM phosphate pH 7.2, 37 °C, 5% v/v DMSO, prodrug 0.1-20 mM. It is filed as biochemical.

Where two headings read alike, the source gives them in different places.

T2 sequence (P38489 whole entry): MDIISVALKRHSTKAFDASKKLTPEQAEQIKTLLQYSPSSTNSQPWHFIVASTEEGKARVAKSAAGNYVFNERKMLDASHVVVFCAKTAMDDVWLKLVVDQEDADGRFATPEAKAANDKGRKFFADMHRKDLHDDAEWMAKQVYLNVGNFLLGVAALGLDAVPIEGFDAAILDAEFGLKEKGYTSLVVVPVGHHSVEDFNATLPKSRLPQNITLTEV

The Km is the substrate concentration at which the rate is half of its maximum. For the compound `CS(=O)(=O)OCCN(CCBr)c1c(C(=O)NCCO)cc([N+](=O)[O-])cc1[N+](=O)[O-]` [PR-104A, 2-[N-(2-bromoethyl)-2-(2-hydroxyethylcarbamoyl)-4,6-dinitroanilino]ethylmethanesulfonate], the Km in experiment [1] (text b40 prints 1935 μM) amounted to 1900 ± 350 µM; in experiment [2] (text b40 prints 3172 μM), 3100 ± 400 µM.

With `O=C(NCCO)c1cc([N+](=O)[O-])cc([N+](=O)[O-])c1N(CCBr)CCBr` [SN27686], the Km in experiment [1] was determined as 420 ± 120 µM; in experiment [2] (text b40 prints 257 μM), 250 ± 80 µM.

The values above are taken from article PMC10126811, “The dinitrobenzamide mustard prodrugs, PR-104A and SN27686, for use in a novel MNDEPT cancer prodrug therapy approach” (Bioscience Reports, 2023).
